In assay [1] the target is T1, acetylcholinesterase (Rattus norvegicus, UniProt P37136).
T1 construct: corpora striata dissected free, weighed and homogenized in 19 volumes; from tissue; host or cells: corpora striata of male Wistar rats, crude homogenate
T1 sequence (P37136 32-614): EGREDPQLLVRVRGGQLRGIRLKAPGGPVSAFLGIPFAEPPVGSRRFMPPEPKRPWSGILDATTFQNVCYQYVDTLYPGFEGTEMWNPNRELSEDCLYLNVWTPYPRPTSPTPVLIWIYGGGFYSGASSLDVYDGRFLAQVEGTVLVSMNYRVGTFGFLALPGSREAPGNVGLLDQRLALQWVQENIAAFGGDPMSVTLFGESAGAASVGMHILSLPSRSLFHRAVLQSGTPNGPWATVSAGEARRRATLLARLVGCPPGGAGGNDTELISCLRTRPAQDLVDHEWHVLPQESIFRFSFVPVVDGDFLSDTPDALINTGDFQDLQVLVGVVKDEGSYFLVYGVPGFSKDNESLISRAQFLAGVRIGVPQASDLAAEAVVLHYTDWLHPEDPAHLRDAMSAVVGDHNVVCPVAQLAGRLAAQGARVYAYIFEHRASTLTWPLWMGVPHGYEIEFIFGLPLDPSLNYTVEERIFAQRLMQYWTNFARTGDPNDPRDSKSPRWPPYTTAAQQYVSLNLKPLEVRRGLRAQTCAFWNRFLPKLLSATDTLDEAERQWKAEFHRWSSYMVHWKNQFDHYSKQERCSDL
The experiment in a line: in vitro inhibition of acetylcholinesterase assay (modified Ellman). The assay is classed as biochemical, Male Wistar rat (corpora striata homogenate). How it is done:
In this assay, a modification of a test described by G. L. Ellman, et al., Biochemical Pharmacology, 7, 88 (1961), the following reagents are prepared and employed:
1.0.05M Phosphate Buffer (pH 7.2)
A solution of monobasic sodium phosphate monohydrate (6.85 g) in distilled water (100 ml) is added to a solution of dibasic sodium phosphate heptahydrate (13.4 g) and distilled water (100 ml) until a pH of 7.2 was attained. The solution was diluted 1 to 10 with distilled water.
The 0.05M Phosphate Buffer (pH 7.2) was added to acetylthiocholine (198 mg) to a total volume of 100 ml, i.e., a quantity sufficient (gs) to 100 ml.
3. 5,5-Dithiobisnitrobenzoic acid in Buffer
The 0.05M Phosphate Buffer (pH 7.2) was added to 5,5-dithiobisnitrobenzoic acid to a total volume of 100 ml, i.e., a quantity sufficient (gs) to 100 ml.
4. Stock Solution of Drug
A 2 millimolar stock solution of the test drug is prepared in a quantity sufficient of either acetic acid or dimethyl sulfoxide to volume with 5,5-Dithiobisnitrobenzoic Acid in Buffer. Stock Solution of Drug is serially diluted (1:10) so that the final cuvette concentration is 10^-4 molar.
Male Wistar rates are decapitated, brains rapidly removed, corpora striata dissected free, weighed and homogenized in 19 volumes (approximately 7 mg protein/ml) of 0.05M phosphate Buffer (pH 7.2) using a Potter-Elvehjem homogenizer. A 25 μl aliquot of this suspension is added to 1 ml of the vehicle or various concentrations of the test drug and preincubated for 10 minutes at 37° C. Enzyme activity is measured with a Beckman DU-50 spectrophotometer with the following software and instrument settings:
1. Kinetics Soft-Pac™ Module #598273;
6. Cuvettes--2 ml cuvettes using auto 6-sampler;
7. Blank--1 for each substrate concentration;
8. Interval time--15 seconds (15 or 30 seconds for kinetics);
9. Total time--5 minutes (5 or 10 minutes for kinetics);
14 12. Slope--increasing;
13. Results--yes (gives slope); and
Reagents are added to the blank and sample cuvettes as follows:
1. Blank: 0.8 ml 5,5-Dithiobisnitrobenzoic Acid 0.8 ml Substrate in Buffer
2. Control: 0.8 ml 5,5-Dithiobisnitrobenzoic Acid/Enzyme 0.8 ml Substrate in Buffer
3. Drug: 0.8 ml 5,5-Dithiobisnitrobenzoic Acid/Drug/Enzyme 0.8 ml Substrate in Buffer
Blank values are determined for each run to control for non-enzymatic hydrolysis of substrate and these values are automatically subtracted by the Kindata program available on kinetics soft-pac module. This program also calculates the rate of absorbance change for each cuvette.
Substrate concentration is 10 millimolar diluted 1:2 in assay yielding final concentration of 5 millimolar. 5,5-Dithiobisnitrobenzoic acid concentration is 0.5 millimolar yielding 0.25 millimolar final concentration. [formula]
IC50 values are calculated from log-probit analysis

Assay [2] relates to acetylcholinesterase. As to the kind of experiment: ex vivo inhibition acetylcholinesterase assay (modified Ellman). Type of assay: in vivo, male Wistar rats. (In general: Ellman's reagent forms a yellow product with free thiols.)

The text below walks through data of patent US5405845A, “(Pyrrolidinyl)phenyl carbamate derivatives and use” (priority 1994, dated 1995).

For orientation: IC50 means the concentration that gives 50% inhibition. As to `CNC(=O)Oc1cccc(C2CCC(=O)N2CCN2CCOCC2)c1` (stereo not shown) [3-{1-[2-(4-Morpholinyl)ethyl]-5-oxo-2-pyrrolidinyl}phenyl methylcarbamate], the 50% inhibitory concentration (IC50) on acetylcholinesterase [1] was 18700 nM. This counts as double-digit micromolar.

On to `CNC(=O)Oc1cccc(C2CCCN2Cc2ccncc2)c1` (stereo not shown) [3-[1-(4-Pyridinylmethyl)-2-pyrrolidinyl]phenyl methylcarbamate], for which the “Inhibition of Acetylcholinesterase Activity Percent Inhibition @ 1 hr” value in the assay with acetylcholinesterase [2] (10 mg/kg per os, striatum) amounted to 80%. At acetylcholinesterase [1], this compound yielded an IC50 of 24.4 nM.

`CNC(=O)Oc1cccc(C2CCCN2CCc2ccccc2)c1` (stereo not shown) [3-[1-(2-Phenylethyl)-2-pyrrolidinyl]phenyl methylcarbamate]: the “Inhibition of Acetylcholinesterase Activity Percent Inhibition @ 1 hr” value with acetylcholinesterase [2] (10 mg/kg per os, forebrain) is 25%.

Take `CNC(=O)Oc1cccc(C2CCCN2Cc2cccnc2)c1` (stereo not shown) [3-[1-(3-Pyridinylmethyl)-2-pyrrolidinyl]phenyl methylcarbamate]: in the assay with acetylcholinesterase [2] (10 mg/kg per os, forebrain), the “Inhibition of Acetylcholinesterase Activity Percent Inhibition @ 1 hr” value is listed as 51%.

On to `CCN1CCCC1c1cccc(OC(=O)NC)c1` (stereo not shown) [3-[1-Ethyl-2-pyrrolidinyl]phenyl methylcarbamate], for which, in the assay with acetylcholinesterase [2] (1 mg/kg per os, forebrain), the “Inhibition of Acetylcholinesterase Activity Percent Inhibition @ 1 hr” value was 73%.

On to `CNC(=O)Oc1ccc2c(c1)[C@]1(C)CCN(C)[C@@H]1N2C` [physostigmine, reference compound], for which, in the assay on acetylcholinesterase [2] (0.3 mg/kg intraperitoneal, forebrain), the “Inhibition of Acetylcholinesterase Activity Percent Inhibition @ 1 hr” value was 27%.

`CNC(=O)Oc1cccc(C2CCCN2CCN2CCOCC2)c1` (stereo not shown) [3-{1-[2-(4-Morpholinyl)ethyl]-2-pyrrolidinyl}phenyl methylcarbamate bis-fumarate] displayed a concentration for half-maximal inhibition (IC50) at acetylcholinesterase [1] of 529 nM.

For `CNC(=O)Oc1cccc(C2CCC(=O)N2Cc2ccncc2)c1` (stereo not shown) [3-[1-((4-Pyridinyl)methyl)-5-oxo-2-pyrrolidinyl]phenyl methylcarbamate hemifumarate], 1440 nM corresponded to half-maximal inhibition at acetylcholinesterase [1] (IC50).

`O=C(Oc1cccc(C2CCCN2Cc2ccncc2)c1)N1CCc2ccccc2C1` (stereo not shown) [3-[1-(4-Pyridinylmethyl)-2-pyrrolidinyl]phenyl 3,4-dihydro-2(1H)-isoquinoline carbamate hemifumarate]: on acetylcholinesterase [1], it took 568 nM to reach half-maximal inhibition (IC50).
